The source of these data is ChEMBL document CHEMBL1833857, “Histone deacetylase activators: N-acetylthioureas serve as highly potent and isozyme selective activators for human histone deacetylase-8 on a fluorescent substrate” (Bioorg Med Chem Lett, 2011).

The term inhibition denotes the relative decrease from the control value, in per cent.

Data set [1] concerns the target Histone deacetylase 4 (Homo sapiens) (UniProt P56524). Put plainly: Activation of HDAC4 using trifluoroacetyl-lysine containing fluorogenic substrate at 100 uM by spectrofluorometry.
Data set [2] is described as follows: Solubility of the compound at 100 uM. Format: physicochemical.
Data set [3] has as its target Histone deacetylase 4 (Homo sapiens) (UniProt P56524). In words: Activation of HDAC4 using trifluoroacetyl-lysine containing fluorogenic substrate at 10 uM by spectrofluorometry.
Data set [4] addresses T1, Histone deacetylase 8 (Homo sapiens) (UniProt Q9BY41).
T1 sequence (whole entry): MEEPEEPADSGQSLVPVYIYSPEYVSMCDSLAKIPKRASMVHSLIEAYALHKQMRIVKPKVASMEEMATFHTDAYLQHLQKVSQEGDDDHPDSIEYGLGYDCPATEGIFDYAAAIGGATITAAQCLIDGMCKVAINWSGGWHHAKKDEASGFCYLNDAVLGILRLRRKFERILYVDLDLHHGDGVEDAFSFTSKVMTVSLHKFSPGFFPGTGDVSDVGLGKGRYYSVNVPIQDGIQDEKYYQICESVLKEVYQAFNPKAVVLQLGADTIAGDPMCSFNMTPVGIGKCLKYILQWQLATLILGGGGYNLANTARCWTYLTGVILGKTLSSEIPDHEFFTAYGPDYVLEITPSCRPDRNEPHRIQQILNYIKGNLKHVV
In words: Activation of recombinant human HDAC8 assessed as ratio of the initial rate of reaction in the absence and presence of compound using Fluor-de-Lys as substrate at 10 uM by spectrofluorometry.

Data set [5] deals with T1, Histone deacetylase 8 (Homo sapiens). Put plainly: Activation of recombinant human HDAC8 assessed as increase in Kcat using Fluor-de-Lys as substrate by spectrofluorometry relative to control.
For data set [6], the target named is Histone deacetylase 4 (Homo sapiens) (UniProt P56524). Put plainly: Inhibition of HDAC4 using trifluoroacetyl-lysine containing fluorogenic substrate at 100 uM by spectrofluorometry.
Data set [7] addresses Histone deacetylase 1 (Homo sapiens) (UniProt Q13547). In words: Inhibition of HDAC1 using Fluor-de-Lys as substrate at 100 uM by spectrofluorometry.
Data set [8] addresses T1, Histone deacetylase 8 (Homo sapiens). In words: Maximum activation of recombinant human HDAC8 using Fluor-de-Lys as substrate by spectrofluorometry relative to control.
In data set [9] the target is Histone deacetylase 3 (Homo sapiens) (UniProt O15379). Put plainly: Inhibition of HDAC3 using Fluor-de-Lys as substrate at 100 uM by spectrofluorometry.
Data set [10] concerns the target T1, Histone deacetylase 8 (Homo sapiens). Put plainly: Activation of recombinant human HDAC8 assessed as decrease in Km using Fluor-de-Lys as substrate by spectrofluorometry.
For data set [11] the target is unchanged. In words: Activation of recombinant human HDAC8 using Fluor-de-Lys as substrate by spectrofluorometry.
Data set [12] addresses T2, Polyamine deacetylase HDAC10 (Homo sapiens) (UniProt Q969S8).
T2 sequence (whole entry): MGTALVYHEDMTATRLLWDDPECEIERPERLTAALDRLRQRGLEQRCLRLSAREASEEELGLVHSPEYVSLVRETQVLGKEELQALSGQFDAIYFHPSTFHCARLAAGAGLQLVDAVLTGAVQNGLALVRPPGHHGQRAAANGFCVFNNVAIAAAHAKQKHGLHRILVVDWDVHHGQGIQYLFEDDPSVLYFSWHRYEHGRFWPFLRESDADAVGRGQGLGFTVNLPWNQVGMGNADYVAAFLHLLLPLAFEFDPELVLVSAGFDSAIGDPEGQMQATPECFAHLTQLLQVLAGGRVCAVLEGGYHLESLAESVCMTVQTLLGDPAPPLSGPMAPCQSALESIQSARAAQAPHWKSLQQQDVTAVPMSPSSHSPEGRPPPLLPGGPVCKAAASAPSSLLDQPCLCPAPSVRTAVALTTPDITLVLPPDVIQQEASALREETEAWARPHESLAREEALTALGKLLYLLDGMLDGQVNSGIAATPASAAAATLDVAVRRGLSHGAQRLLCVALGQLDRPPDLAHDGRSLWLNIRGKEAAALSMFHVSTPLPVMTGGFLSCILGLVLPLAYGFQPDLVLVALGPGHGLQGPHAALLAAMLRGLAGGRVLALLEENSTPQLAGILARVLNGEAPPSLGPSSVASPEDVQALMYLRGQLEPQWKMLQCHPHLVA
Put plainly: Inhibition of HDAC10 using Fluor-de-Lys as substrate at 100 uM by spectrofluorometry.

Data set [13] addresses T1, Histone deacetylase 8 (Homo sapiens). Put plainly: Activation of recombinant human HDAC8 assessed as increase in ratio of Kcat to Km using Fluor-de-Lys as substrate by spectrofluorometry relative to control.
The target in data set [14] is T3, Histone deacetylase 11 (Homo sapiens) (UniProt Q96DB2).
T3 sequence (whole entry): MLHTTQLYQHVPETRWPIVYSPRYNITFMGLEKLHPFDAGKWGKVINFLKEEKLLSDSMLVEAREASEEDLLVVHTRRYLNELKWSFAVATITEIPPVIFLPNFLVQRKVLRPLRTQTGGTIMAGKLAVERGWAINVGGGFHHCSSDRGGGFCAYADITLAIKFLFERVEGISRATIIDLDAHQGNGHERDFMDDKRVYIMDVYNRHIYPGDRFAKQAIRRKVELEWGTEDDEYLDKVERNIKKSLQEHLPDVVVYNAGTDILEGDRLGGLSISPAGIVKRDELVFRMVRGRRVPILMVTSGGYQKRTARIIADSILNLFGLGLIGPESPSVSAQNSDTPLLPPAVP
In words: Inhibition of HDAC11 using Fluor-de-Lys as substrate at 100 uM by spectrofluorometry.

Data set [15] has as its target Histone deacetylase 2 (Homo sapiens) (UniProt Q92769). Put plainly: Inhibition of HDAC2 using Fluor-de-Lys as substrate at 100 uM by spectrofluorometry.
The target of data set [16] is T4, Protein deacetylase HDAC6 (Homo sapiens) (UniProt Q9UBN7).
T4 sequence (whole entry): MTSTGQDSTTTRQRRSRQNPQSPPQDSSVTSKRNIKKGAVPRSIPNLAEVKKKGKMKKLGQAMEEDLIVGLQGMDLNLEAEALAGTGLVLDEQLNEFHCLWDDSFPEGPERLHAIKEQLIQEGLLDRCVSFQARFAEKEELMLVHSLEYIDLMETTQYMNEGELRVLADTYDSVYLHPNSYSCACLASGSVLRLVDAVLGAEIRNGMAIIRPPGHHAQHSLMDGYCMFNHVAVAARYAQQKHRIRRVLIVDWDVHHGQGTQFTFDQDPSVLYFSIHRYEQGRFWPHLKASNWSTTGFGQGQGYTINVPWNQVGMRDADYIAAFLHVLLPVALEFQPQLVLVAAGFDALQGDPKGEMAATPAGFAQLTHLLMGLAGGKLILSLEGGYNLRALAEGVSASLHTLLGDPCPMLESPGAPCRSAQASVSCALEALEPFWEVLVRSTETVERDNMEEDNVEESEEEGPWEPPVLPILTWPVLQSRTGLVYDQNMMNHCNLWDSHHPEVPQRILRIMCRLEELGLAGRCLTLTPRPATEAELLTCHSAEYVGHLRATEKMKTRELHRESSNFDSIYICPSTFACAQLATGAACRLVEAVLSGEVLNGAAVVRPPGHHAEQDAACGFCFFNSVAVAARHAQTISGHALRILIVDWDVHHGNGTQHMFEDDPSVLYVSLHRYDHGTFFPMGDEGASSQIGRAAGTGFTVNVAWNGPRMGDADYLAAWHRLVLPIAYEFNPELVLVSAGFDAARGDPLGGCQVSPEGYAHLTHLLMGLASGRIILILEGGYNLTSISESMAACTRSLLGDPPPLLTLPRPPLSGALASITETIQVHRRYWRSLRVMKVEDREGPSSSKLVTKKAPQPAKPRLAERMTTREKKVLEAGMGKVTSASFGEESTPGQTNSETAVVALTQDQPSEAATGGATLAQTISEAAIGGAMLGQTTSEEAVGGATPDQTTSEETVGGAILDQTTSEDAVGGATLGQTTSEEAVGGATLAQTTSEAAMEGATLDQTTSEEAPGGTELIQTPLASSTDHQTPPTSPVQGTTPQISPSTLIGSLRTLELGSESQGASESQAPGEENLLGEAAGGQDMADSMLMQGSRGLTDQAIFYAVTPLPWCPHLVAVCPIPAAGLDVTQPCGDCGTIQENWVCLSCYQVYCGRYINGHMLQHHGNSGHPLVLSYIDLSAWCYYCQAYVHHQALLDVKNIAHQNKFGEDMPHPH
In words: Inhibition of HDAC6 using Fluor-de-Lys as substrate at 100 uM by spectrofluorometry.

Data set [17] deals with Histone deacetylase 3 (Homo sapiens) (UniProt O15379). In words: Activation of HDAC3 using Fluor-de-Lys as substrate at 10 uM by spectrofluorometry.
Data set [18] has as its target T2, Polyamine deacetylase HDAC10 (Homo sapiens). Put plainly: Activation of HDAC10 using Fluor-de-Lys as substrate at 10 uM by spectrofluorometry.
Data set [19] has as its target Histone deacetylase 2 (Homo sapiens) (UniProt Q92769). Put plainly: Activation of HDAC2 using Fluor-de-Lys as substrate at 100 uM by spectrofluorometry.
Data set [20] deals with T4, Protein deacetylase HDAC6 (Homo sapiens). Put plainly: Activation of HDAC6 using Fluor-de-Lys as substrate at 100 uM by spectrofluorometry.
In data set [21] the target is Histone deacetylase 3 (Homo sapiens) (UniProt O15379). Put plainly: Activation of HDAC3 using Fluor-de-Lys as substrate at 100 uM by spectrofluorometry.
For data set [22], the target named is T3, Histone deacetylase 11 (Homo sapiens). Put plainly: Activation of HDAC11 using Fluor-de-Lys as substrate at 100 uM by spectrofluorometry.
Data set [23] has as its target Histone deacetylase 2 (Homo sapiens) (UniProt Q92769). In words: Activation of HDAC2 using Fluor-de-Lys as substrate at 10 uM by spectrofluorometry.
Data set [24] concerns the target T3, Histone deacetylase 11 (Homo sapiens). In words: Activation of HDAC11 using Fluor-de-Lys as substrate at 10 uM by spectrofluorometry.
The target in data set [25] is T2, Polyamine deacetylase HDAC10 (Homo sapiens). In words: Activation of HDAC10 using Fluor-de-Lys as substrate at 100 uM by spectrofluorometry.
Data set [26] deals with T4, Protein deacetylase HDAC6 (Homo sapiens). Put plainly: Activation of HDAC6 using Fluor-de-Lys as substrate at 10 uM by spectrofluorometry.

Structures are written as SMILES. Calls of active or inactive are those of the source. No cut-off for these calls is given here.

Histone deacetylase 4 (Homo sapiens), sequence (P56524 whole entry): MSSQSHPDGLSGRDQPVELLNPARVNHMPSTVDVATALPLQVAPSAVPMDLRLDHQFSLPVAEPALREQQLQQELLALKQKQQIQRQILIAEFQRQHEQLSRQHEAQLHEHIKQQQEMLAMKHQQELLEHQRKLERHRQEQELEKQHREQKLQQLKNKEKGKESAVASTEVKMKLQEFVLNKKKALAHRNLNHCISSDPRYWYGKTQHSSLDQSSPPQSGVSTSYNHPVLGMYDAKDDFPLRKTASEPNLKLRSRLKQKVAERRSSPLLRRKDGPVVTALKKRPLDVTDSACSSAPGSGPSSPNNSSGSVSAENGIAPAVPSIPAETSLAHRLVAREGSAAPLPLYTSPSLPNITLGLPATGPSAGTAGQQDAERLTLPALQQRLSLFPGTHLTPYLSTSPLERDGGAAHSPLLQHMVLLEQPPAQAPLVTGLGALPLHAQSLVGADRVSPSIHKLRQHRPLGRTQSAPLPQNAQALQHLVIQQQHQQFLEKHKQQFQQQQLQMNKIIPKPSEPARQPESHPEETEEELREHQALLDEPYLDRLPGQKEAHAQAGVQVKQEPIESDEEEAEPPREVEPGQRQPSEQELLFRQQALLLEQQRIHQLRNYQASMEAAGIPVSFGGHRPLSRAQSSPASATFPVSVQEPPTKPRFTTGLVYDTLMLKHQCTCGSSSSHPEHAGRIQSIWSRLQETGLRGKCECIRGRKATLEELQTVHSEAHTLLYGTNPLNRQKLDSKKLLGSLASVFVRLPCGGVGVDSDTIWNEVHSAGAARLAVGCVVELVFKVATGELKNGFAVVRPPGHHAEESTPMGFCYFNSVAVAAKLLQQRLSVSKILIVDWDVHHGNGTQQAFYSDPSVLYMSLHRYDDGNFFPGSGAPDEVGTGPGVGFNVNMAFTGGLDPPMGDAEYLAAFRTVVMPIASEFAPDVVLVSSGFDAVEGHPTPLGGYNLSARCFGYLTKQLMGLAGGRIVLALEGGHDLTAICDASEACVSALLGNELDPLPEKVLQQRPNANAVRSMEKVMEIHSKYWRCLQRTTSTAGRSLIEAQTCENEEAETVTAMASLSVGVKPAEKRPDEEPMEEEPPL
Histone deacetylase 1 (Homo sapiens), sequence (Q13547 whole entry): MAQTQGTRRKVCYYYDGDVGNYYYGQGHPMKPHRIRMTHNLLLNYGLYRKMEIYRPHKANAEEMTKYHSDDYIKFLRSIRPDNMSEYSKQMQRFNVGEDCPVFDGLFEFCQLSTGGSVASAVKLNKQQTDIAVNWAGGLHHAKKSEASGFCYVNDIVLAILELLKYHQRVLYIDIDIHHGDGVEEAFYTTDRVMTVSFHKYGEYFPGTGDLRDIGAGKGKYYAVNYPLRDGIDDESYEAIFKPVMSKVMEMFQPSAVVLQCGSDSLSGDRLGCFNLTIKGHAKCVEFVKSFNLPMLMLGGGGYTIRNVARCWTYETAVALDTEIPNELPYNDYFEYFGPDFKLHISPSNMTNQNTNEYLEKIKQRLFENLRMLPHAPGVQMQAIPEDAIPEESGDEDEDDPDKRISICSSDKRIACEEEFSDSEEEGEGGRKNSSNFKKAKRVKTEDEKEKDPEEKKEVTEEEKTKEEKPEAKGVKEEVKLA
Histone deacetylase 2 (Homo sapiens), sequence (Q92769 whole entry): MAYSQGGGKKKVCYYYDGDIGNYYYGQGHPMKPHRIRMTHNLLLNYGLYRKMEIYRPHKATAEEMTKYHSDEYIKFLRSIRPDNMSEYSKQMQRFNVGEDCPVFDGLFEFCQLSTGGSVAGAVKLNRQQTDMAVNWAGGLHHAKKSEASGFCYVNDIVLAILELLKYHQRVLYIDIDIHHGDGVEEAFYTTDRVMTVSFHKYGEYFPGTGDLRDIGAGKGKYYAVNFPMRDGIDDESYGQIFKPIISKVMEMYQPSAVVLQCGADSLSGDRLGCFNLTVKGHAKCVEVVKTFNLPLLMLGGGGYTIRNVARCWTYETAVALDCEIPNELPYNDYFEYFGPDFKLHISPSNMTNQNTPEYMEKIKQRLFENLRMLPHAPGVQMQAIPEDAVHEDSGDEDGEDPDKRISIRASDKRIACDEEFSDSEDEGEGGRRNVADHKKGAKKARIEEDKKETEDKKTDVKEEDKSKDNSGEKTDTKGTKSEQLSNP
Histone deacetylase 3 (Homo sapiens), sequence (O15379 whole entry): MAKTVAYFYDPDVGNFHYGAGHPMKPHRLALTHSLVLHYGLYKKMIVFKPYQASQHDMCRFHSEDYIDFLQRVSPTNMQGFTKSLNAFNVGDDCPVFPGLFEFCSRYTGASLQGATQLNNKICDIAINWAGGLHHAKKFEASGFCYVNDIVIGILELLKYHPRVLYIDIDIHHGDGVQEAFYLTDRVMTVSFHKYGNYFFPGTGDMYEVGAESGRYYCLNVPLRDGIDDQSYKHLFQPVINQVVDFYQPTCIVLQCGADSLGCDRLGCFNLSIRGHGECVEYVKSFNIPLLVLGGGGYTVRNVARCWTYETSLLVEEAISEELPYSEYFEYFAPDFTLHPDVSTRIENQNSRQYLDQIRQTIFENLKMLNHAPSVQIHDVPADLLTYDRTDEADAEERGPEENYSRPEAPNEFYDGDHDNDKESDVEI

As to `Cc1cc(=O)oc2cc(NC(=S)NC(=O)c3ccccc3)ccc12`, the outcome in [1] and in [3] was inactive. In addition, the solubility result in data set [2] was “Insoluble”. Moreover, in data set [4], the fold change (FC) worked out at 2.

With `O=C(NC(=S)Nc1ccccc1)c1ccccc1`, the fold change (FC) in [5] was found to be 5; in data set [8], 26.8; in data set [10], 3; in [13] it was 16; in [4], 12. The inhibition result in data set [6] is “inactive”. Moreover, the inhibition stood at 8% in [7]; 6% in [9]; 15% in data set [12]; 14% in data set [14]; 8% in [15]; 30% in data set [16]. For the same compound, the outcome in data set [1] and in data set [3] was inactive. Further, the Ka in data set [11] worked out at 12.4 µM.

Consider `O=C(NC(=S)NC1CCCCC1)c1ccccc1`, for which the result in [17], in data set [18], in [19], in data set [20], in data set [21] and in [22] was inactive. For the same compound, the outcome in [23], in data set [1], in data set [24], in [25], in data set [26] and in data set [3] was inactive. For the same compound, the inhibition entry in [6], in [9], in [12], in [14], in data set [15] and in [16] was “inactive” throughout. For the same compound, the inhibition in data set [7] worked out at 5%. For the same compound, the fold change (FC) in [4] turned out to be 5.6.

`O=C(NC(=S)NCc1ccccc1)c1ccccc1`: the result in data set [17], in [18], in [19], in [20], in data set [21] and in data set [22] was inactive. Also, the result in data set [23], in data set [1], in data set [24], in [25], in data set [26] and in data set [3] was inactive. For the same compound, the inhibition entry in [6], in [9], in [12], in data set [14], in [15] and in data set [16] was “inactive” each time. For the same compound, the inhibition in [7] came to 5%. Further, in [4], the fold change (FC) is 3.3.
